Blank lines part the entries; values can stand above or below the molecule they belong to.
Tests used:
Format in all cases: biochemical
[1] = biological target: T1, ENPP1 (Homo sapiens, UniProt P22413); assay: ENPP1 enzyme assay with AMP-pNP substrate (hydrolysis of ATP analog); settings: AMP-pNP substrate (ATP analog); Ki from IC50 by Cheng-Prusoff; read-out: ENPP1 Inhibition _AMP-pNP: Ki
T1 sequence (P22413 1-925): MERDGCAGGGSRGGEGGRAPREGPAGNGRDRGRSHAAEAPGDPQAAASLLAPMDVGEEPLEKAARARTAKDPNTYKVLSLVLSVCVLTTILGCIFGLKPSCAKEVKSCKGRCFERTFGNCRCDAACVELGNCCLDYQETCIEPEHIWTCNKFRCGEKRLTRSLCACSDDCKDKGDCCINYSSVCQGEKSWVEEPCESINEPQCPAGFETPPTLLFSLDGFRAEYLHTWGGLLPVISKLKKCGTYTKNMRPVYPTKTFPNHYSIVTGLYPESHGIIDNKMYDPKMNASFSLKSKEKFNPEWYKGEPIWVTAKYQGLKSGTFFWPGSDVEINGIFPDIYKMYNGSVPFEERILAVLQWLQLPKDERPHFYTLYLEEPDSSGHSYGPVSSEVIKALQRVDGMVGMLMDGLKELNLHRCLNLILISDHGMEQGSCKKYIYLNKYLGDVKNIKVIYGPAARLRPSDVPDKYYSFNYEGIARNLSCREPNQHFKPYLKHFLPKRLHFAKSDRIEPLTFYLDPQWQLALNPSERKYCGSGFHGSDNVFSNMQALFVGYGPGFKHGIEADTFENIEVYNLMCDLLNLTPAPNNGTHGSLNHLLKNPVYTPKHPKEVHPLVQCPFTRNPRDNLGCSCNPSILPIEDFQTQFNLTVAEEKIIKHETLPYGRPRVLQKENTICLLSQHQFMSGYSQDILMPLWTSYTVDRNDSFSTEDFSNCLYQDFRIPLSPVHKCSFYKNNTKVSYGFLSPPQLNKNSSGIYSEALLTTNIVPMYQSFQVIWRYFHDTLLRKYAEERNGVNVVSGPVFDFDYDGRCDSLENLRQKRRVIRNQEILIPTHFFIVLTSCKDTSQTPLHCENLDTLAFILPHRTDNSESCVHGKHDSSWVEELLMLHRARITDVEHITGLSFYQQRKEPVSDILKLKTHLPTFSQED
Summary of the method: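 Human recombinant ENPP1 (60 ng/well) with 300 µM AMP-pNP in 50 mM Tris-HCl pH 8.5, 250 mM NaCl, 0.5 mM CaCl2, 1 µM ZnCl2, 0.1% DMSO, 20 min at 37 °C.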

[2] = biological target: T1, ENPP1; assay: Indirect quantitation of 2',3'-cGAMP hydrolysis (AMP-Glo Assay kit); settings: cGAMP substrate; Ki from IC50 by Cheng-Prusoff; read-out: ENPP1 Inhibition -cGAMP: Ki
[3] = biological target: T1, ENPP1; assay: Substrate selectivity ratio, inhibition of cGAMP hydrolysis versus ATP hydrolysis; settings: ratio Ki AMP-pNP / Ki cGAMP
Method: The selectivity ratios for inhibition of cGAMP hydrolysis versus ATP hydrolysis were then calculated as follows: […]

Ki [1]: 100 to 1000 nM
Ki [2]: < 100 nM
Substrate Selectivity: Ki_AMP-pNP/Ki_cGAMP [3]: 13.7
SMILES: COc1ccc2c(Oc3ccc(NS(N)(=O)=O)cc3)c(C)cnc2c1 [Example 300, N-(4-((7-methoxy-3-methylquinolin-4-yl)oxy)phenyl)sulfamide]

Ki [1]: 100 to 1000 nM
Ki [2]: < 100 nM
Substrate Selectivity: Ki_AMP-pNP/Ki_cGAMP [3]: >13.0
SMILES: COc1ccc2c(Sc3ccc(NS(N)(=O)=O)cc3)ccnc2c1 [Example 302, N-(4-((7-methoxyquinolin-4-yl)thio)phenyl)sulfamide]

Ki [1]: 100 to 1000 nM
Ki [2]: < 100 nM
Substrate Selectivity: Ki_AMP-pNP/Ki_cGAMP [3]: 41.6
SMILES: COc1cc2nccc(Oc3ccc(S(N)(=O)=O)cc3)c2cc1OC [Example 303, 4-((6,7-dimethoxyquinolin-4-yl)oxy)benzenesulfonamide]

Ki [1]: 100 to 1000 nM
Ki [2]: < 100 nM
Substrate Selectivity: Ki_AMP-pNP/Ki_cGAMP [3]: 28.4
SMILES: COc1ccc2c(Oc3ccc(NS(N)(=O)=O)c(C)c3)ccnc2c1 [Example 308, N-(4-((7-methoxyquinolin-4-yl)oxy)-2-methylphenyl)sulfamide]

Ki [1]: 100 to 1000 nM
Ki [2]: < 100 nM
Substrate Selectivity: Ki_AMP-pNP/Ki_cGAMP [3]: 28.2
SMILES: COc1ccc2c(Oc3ccc(CS(N)(=O)=O)cc3)ccnc2c1 [Example 312, (4-((7-methoxyquinolin-4-yl)oxy)phenyl)methanesulfonamide]

Ki [1]: > 1000 nM
Ki [2]: < 100 nM
Substrate Selectivity: Ki_AMP-pNP/Ki_cGAMP [3]: >49.7
SMILES: COc1ccc2c(Oc3ccc(NS(N)(=O)=O)c(C#N)c3)ccnc2c1 [Example 315, N-(2-cyano-4-((7-methoxyquinolin-4-yl)oxy)phenyl)sulfamide]

Ki [1]: > 1000 nM
Ki [2]: 100 to 1000 nM
Substrate Selectivity: Ki_AMP-pNP/Ki_cGAMP [3]: >49.9
SMILES: COc1ccc2c(Oc3ccc(NS(N)(=O)=O)cc3C(F)(F)F)ccnc2c1 [Example 317, N-(4-((7-methoxyquinolin-4-yl)oxy)-3-(trifluoromethyl)phenyl)sulfamide]

Ki [1]: > 1000 nM
Ki [2]: < 100 nM
Substrate Selectivity: Ki_AMP-pNP/Ki_cGAMP [3]: >35.9
SMILES: COc1ccc2c(Oc3ccc4c(c3)CCCN4S(N)(=O)=O)ccnc2c1 [Example 319, 6-((7-methoxyquinolin-4-yl)oxy)-3,4-dihydroquinoline-1(2H)-sulfonamide]

Ki [1]: 100 to 1000 nM
Ki [2]: < 100 nM
Substrate Selectivity: Ki_AMP-pNP/Ki_cGAMP [3]: 35
SMILES: COc1cc2nccc(Oc3ccc(NS(N)(=O)=O)cc3)c2cn1 [Example 330, N-(4-((7-methoxy-1,6-naphthyridin-4-yl)oxy)phenyl)sulfamide]

Ki [1]: > 1000 nM
Ki [2]: 100 to 1000 nM
Substrate Selectivity: Ki_AMP-pNP/Ki_cGAMP [3]: >74
SMILES: COc1ccc2c(Oc3ccc(NS(N)(=O)=O)cc3C#N)ccnc2c1 [Example 353]

Ki [1]: > 1000 nM
Ki [2]: < 100 nM
Substrate Selectivity: Ki_AMP-pNP/Ki_cGAMP [3]: >53
SMILES: COc1ccc2nccc(Oc3ccc(S(N)(=O)=O)cc3)c2c1 [Example 355, 4-((6-methoxyquinolin-4-yl)oxy)benzenesulfonamide]

The next lines start with the molecule.

SMILES: COc1ccc2ncnc(NC(C)c3ccc(NS(N)(=O)=O)cc3)c2c1 (stereo not drawn) [Example 299, N-(4-(1-((6-methoxyquinazolin-4-yl)amino)ethyl)phenyl)sulfamide]
Ki [1]: > 1000 nM
Ki [2]: < 100 nM
Substrate Selectivity: Ki_AMP-pNP/Ki_cGAMP [3]: >45.9

SMILES: COc1cc2ncnc(-c3ccc(CNS(N)(=O)=O)c(F)c3)c2cc1OC [Example 301, N-(4-(6,7-dimethoxyquinazolin-4-yl)-2-fluorobenzyl)sulfamide]
Ki [1]: 100 to 1000 nM
Ki [2]: < 100 nM
Substrate Selectivity: Ki_AMP-pNP/Ki_cGAMP [3]: 34.2

SMILES: NS(=O)(=O)c1ccc(CNc2ncnc3cc(F)ccc23)cc1 [Example 304, 4-(((7-fluoroquinazolin-4-yl)amino)methyl)benzenesulfonamide]
Ki [1]: > 1000 nM
Ki [2]: < 100 nM
Substrate Selectivity: Ki_AMP-pNP/Ki_cGAMP [3]: >34.0

SMILES: COc1ccc2c(-c3ccc4c(c3)CN(S(N)(=O)=O)CC4)ccnc2c1 [Example 305, 7-(7-methoxyquinolin-4-yl)-3,4-dihydroisoquinoline-2(1H)-sulfonamide]
Ki [1]: 100 to 1000 nM
Ki [2]: < 100 nM
Substrate Selectivity: Ki_AMP-pNP/Ki_cGAMP [3]: >13.0

SMILES: COc1ccc2ncnc(NCc3ccc(S(N)(=O)=O)cc3)c2c1 [Example 306, 4-(((6-methoxyquinazolin-4-yl)amino)methyl)benzenesulfonamide]
Ki [1]: 100 to 1000 nM
Ki [2]: < 100 nM
Substrate Selectivity: Ki_AMP-pNP/Ki_cGAMP [3]: 22.4

SMILES: COc1cc2nccc(NC3CCC(NS(N)(=O)=O)CC3)c2cc1OC (stereo not drawn) [Example 307, N-(4-((6,7-dimethoxyquinolin-4-yl)amino)cyclohexyl)sulfamide]
Ki [1]: > 1000 nM
Ki [2]: 100 to 1000 nM
Substrate Selectivity: Ki_AMP-pNP/Ki_cGAMP [3]: >15.5

SMILES: NS(=O)(=O)N1CCc2ccc(-c3ccnc4cc(F)ccc34)cc2C1 [Example 311, 7-(7-fluoroquinolin-4-yl)-3,4-dihydroisoquinoline-2(1H)-sulfonamide]
Ki [1]: > 1000 nM
Ki [2]: < 100 nM
Substrate Selectivity: Ki_AMP-pNP/Ki_cGAMP [3]: >133

SMILES: COc1cc2nccc(-n3ccc4cc(NS(N)(=O)=O)ccc43)c2cc1OC [Example 313, N-(1-(6,7-dimethoxyquinolin-4-yl)-1H-indol-5-yl)sulfamide]
Ki [1]: > 1000 nM
Ki [2]: < 100 nM
Substrate Selectivity: Ki_AMP-pNP/Ki_cGAMP [3]: >38.8

SMILES: COc1cc2nccc(-c3ccc(CNS(N)(=O)=O)nc3)c2cc1OC [Example 314, N-((5-(6,7-dimethoxyquinolin-4-yl)pyridin-2-yl)methyl)sulfamide]
Ki [1]: > 1000 nM
Ki [2]: < 100 nM
Substrate Selectivity: Ki_AMP-pNP/Ki_cGAMP [3]: 35.7

SMILES: COc1cc2ncc(C#N)c(-c3ccc4c(c3)CN(S(N)(=O)=O)CC4)c2cc1F [Example 316, 7-(3-cyano-6-fluoro-7-methoxyquinolin-4-yl)-3,4-dihydroisoquinoline-2(1H)-sulfonamide]
Ki [1]: > 1000 nM
Ki [2]: < 100 nM
Substrate Selectivity: Ki_AMP-pNP/Ki_cGAMP [3]: >533

SMILES: COc1cc2ncnc(N3CCC(CCN)CC3)c2cc1OC [Example 334, 2-(1-(6,7-dimethoxyquinazolin-4-yl)piperidin-4-yl)ethan-1-amine]
Ki [1]: > 1000 nM
Ki [2]: < 100 nM
Substrate Selectivity: Ki_AMP-pNP/Ki_cGAMP [3]: >414

SMILES: COc1cc2ncnc(N3CCC(CNS(N)(=O)=O)CC3)c2cc1OC [Example 339, N-((1-(6,7-dimethoxyquinazolin-4-yl)piperidin-4-yl)methyl)sulfamide]
Ki [1]: 100 to 1000 nM
Ki [2]: < 100 nM
Substrate Selectivity: Ki_AMP-pNP/Ki_cGAMP [3]: 38.5

SMILES: COc1ccc2c(Oc3ccc(N)cc3)ccnc2c1 [Example 342, 4-((7-methoxyquinolin-4-yl)oxy)aniline]
Ki [1]: > 1000 nM
Ki [2]: 100 to 1000 nM
Substrate Selectivity: Ki_AMP-pNP/Ki_cGAMP [3]: >64.9

SMILES: COc1ccc2c(Oc3ncc(NS(N)(=O)=O)cc3C)ccnc2c1 [Example 351, N-(6-((7-methoxyquinolin-4-yl)oxy)-5-methylpyridin-3-yl)sulfamide]
Ki [1]: > 1000 nM
Ki [2]: < 100 nM
Substrate Selectivity: Ki_AMP-pNP/Ki_cGAMP [3]: 55

SMILES: NS(=O)(=O)c1ccc(Oc2ccnc3[nH]c(=O)ccc23)cc1 [Example 352, 4-((7-oxo-7,8-dihydro-1,8-naphthyridin-4-yl)oxy)benzenesulfonamide]
Ki [1]: 100 to 1000 nM
Ki [2]: < 100 nM
Substrate Selectivity: Ki_AMP-pNP/Ki_cGAMP [3]: 43

SMILES: COc1ccc2c(-c3ccc(CNS(N)(=O)=O)nc3)ccnc2c1 [Example 354, N-((5-(7-methoxyquinolin-4-yl)pyridin-2-yl)methyl)sulfamide]
Ki [1]: 100 to 1000 nM
Ki [2]: < 100 nM
Substrate Selectivity: Ki_AMP-pNP/Ki_cGAMP [3]: 54
